Data published in ChEMBL document CHEMBL5257077, “d-chiro-Inositol Derivatives with Multidrug Resistance Reversal Activities from the Fruits of Chisocheton siamensis” (J Nat Prod, 2023).

Experiment: Reversal of multidrug resistance in human MCF7-DOX cells measured for 48 hrs by MTT assay
Format: functional, cell-based

C/C=C(\C)C(=O)O[C@H]1[C@@H](OC(C)=O)[C@H](OC(C)=O)[C@H](OC(=O)/C(C)=C/C)[C@@H](OC(=O)/C(=C/C)CO)[C@@H]1OC(=O)/C(=C/C)CO and C/C=C(\C)C(=O)O[C@H]1[C@H](OC(=O)/C(C)=C/C)[C@@H](OC(=O)/C(C)=C/C)[C@@H](O)[C@H](O)[C@@H]1OC(=O)/C(C)=C/C are within 1.5-fold of each other in IC50: 3.4 µM for the first, 4 µM for the second.

Compared with C/C=C(\C)C(=O)O[C@@H]1[C@H](O)[C@@H](OC(=O)/C(C)=C/C)[C@H](OC(=O)/C(C)=C/C)[C@@H](OC(=O)/C(C)=C/C)[C@H]1O, COc1cccc2c1C(=O)c1c(O)c3c(c(O)c1C2=O)C[C@@](O)(C(=O)CO)C[C@@H]3O[C@H]1C[C@H](N)[C@H](O)[C@H](C)O1 [DOXORUBICIN] is 3.4-fold higher in IC50: 6.5 µM for the first, 22.4 µM for the second.

Work on COc1ccc(CCN(C)CCCC(C#N)(c2ccc(OC)c(OC)c2)C(C)C)cc1OC (stereo not given) [VERAPAMIL] yielded an IC50 of 2.1 µM.
